Measured values as given in PMC8815882, “Screening the pandemic response box identified benzimidazole carbamates, Olorofim and ravuconazole as promising drug candidates for the treatment of eumycetoma” (PLoS Neglected Tropical Diseases, 2022).
Read-outs that look alike come from different tables or passages of the source.

Test system: M. mycetomatis genome strain MM55
Test: CLSI M38-A2 based in vitro susceptibility screening (XTT or resazurin), growth at fixed concentration
Type: cell-based, Madurella mycetomatis
Details: Madurella mycetomatis; for Percent fungal survival at 100 µM: read-out: Percentage survival at 100um, 100 uM A (second replicate column)
[1] = mean of replicates, read-out: Percentage survival at 25um, 25 uM mean
[2] = replicate A, read-out: Percentage survival at 25um, 25 um A
[3] = replicate B, read-out: Percentage survival at 25um, 25 uM B
[4] = replicate C, read-out: Percentage survival at 25um, 25 uM C
[5] = mean of replicates, read-out: Percentage survival at 100um, 100 uM mean
[6] = replicate 1, read-out: Percentage survival at 100um, 100 uM A
[7] = replicate 2, read-out: Percentage survival at 100um, 100 uM A
[8] = replicate 3, read-out: Percentage survival at 100um, 100 uM A
[9] = mean of three replicates, read-out: Percentage survival at 25um, 25 uM mean
[10] = mean of three replicates, read-out: Percentage survival at 100um, 100 uM mean
[11] = replicate 1, read-out: Percentage survival at 100um, 100 uM A (first replicate column)
[12] = replicate 3, read-out: Percentage survival at 100um, 100 uM A (third replicate column)
[13] = mean of three, M. mycetomatis MM55, read-out: Percentage survival at 25um, 25 uM mean
[14] = replicate A, M. mycetomatis MM55, read-out: Percentage survival at 25um, 25 um A
[15] = replicate B, M. mycetomatis MM55, read-out: Percentage survival at 25um, 25 uM B
[16] = replicate C, M. mycetomatis MM55, read-out: Percentage survival at 25um, 25 uM C
[17] = mean of three, M. mycetomatis MM55, read-out: Percentage survival at 100um, 100 uM mean
[18] = replicate 1, M. mycetomatis MM55, read-out: Percentage survival at 100um, 100 uM A (first replicate column)
[19] = replicate 2, M. mycetomatis MM55
[20] = replicate 3, M. mycetomatis MM55, read-out: Percentage survival at 100um, 100 uM A (third replicate column)

Compound	activity at 25 µM [2] [%]	activity at 25 µM [3] [%]	activity at 25 µM [4] [%]	activity at 25 µM [9] [%]	activity at 100 µM [10] [%]	activity at 25 µM [13] [%]	activity at 25 µM [14] [%]	activity at 25 µM [15] [%]	activity at 25 µM [16] [%]	activity at 100 µM [17] [%]	activity at 100 µM [18] [%]	Percent fungal survival at 100 µM [19] [%]	activity at 100 µM [20] [%]	other results
COc1ccc(SC(=O)N[C@H](CCC(=O)O)C(=O)O)cc1 [MMV1580846]	78.8	91.4	84.8	–	–	–	–	–	–	–	–	–	–	activity at 25 µM [1]: 85%; activity at 100 µM [5]: 45.7%; activity at 100 µM [6]: -2.83%; activity at 100 µM [7]: 55.8%; activity at 100 µM [8]: 84.3%
CCCCCc1ccc(C(=O)NCCn2cc(CCCCCc3cnc(N)[nH]3)nn2)cc1 [MMV1580847]	58	61.7	70	63.2	64.8	–	–	–	–	–	–	–	–	activity at 100 µM [11]: 67%; Percent fungal survival at 100 µM (replicate 2): 95.2%; activity at 100 µM [12]: 32.1%
NC(=O)c1cnc2ccc(S(=O)(=O)c3ccccc3)cc2c1Nc1ccc(O)cc1 [MMV1580848]	–	–	–	–	–	78.8	86.9	78.3	71.3	83.2	89.3	86.1	74.3	–
C=CCc1cc(Cc2cnc(N)nc2N)cc(OC)c1O [MMV1580849]	100	95.7	93.6	–	–	–	–	–	–	–	–	–	–	activity at 25 µM [1]: 96.4%; activity at 100 µM [5]: 91.3%; activity at 100 µM [6]: 101%; activity at 100 µM [7]: 86.2%; activity at 100 µM [8]: 86.7%
Fc1ccc(-n2cc(Cn3c(-c4cccc(F)c4)nc4ccccc43)nn2)cc1 [MMV1580850]	–	–	–	–	–	60.8	55.7	55.1	71.7	85.9	71.4	60.3	126	–
CCCCCOc1ccc(/C=C2\Oc3c(ccc(O)c3O)C2=O)c(O)c1 [MMV1580851]	–	–	–	–	–	102	93.6	82.3	129	90	82.6	98.4	89	–
CCCCc1ccc(-c2cc(C(=O)O)cc(-c3ccc(Cl)cc3)n2)cc1 [MMV1580852]	3.56	69.1	28.7	33.8	4.07	–	–	–	–	–	–	–	–	activity at 100 µM [11]: 5.06%; Percent fungal survival at 100 µM (replicate 2): -0.471%; activity at 100 µM [12]: 7.62%
O=C(Nc1cccc(C2=NCCN2)c1)c1ccc(-c2ccc(C(=O)Nc3cccc(C4=NCCN4)c3)cc2)cc1 [MMV1580853]	92.1	94.2	67.1	–	–	–	–	–	–	–	–	–	–	activity at 25 µM (mean, read-out: Percentage survival at 25um, 25 uM mean): 84.5%; activity at 100 µM (mean, read-out: Percentage survival at 100um, 100 uM mean): 55.8%; activity at 100 µM (replicate (first column), read-out: Percentage survival at 100um, 100 uM A): 6.17%; activity at 100 µM (replicate (second column), read-out: Percentage survival at 100um, 100 uM A): 92%; activity at 100 µM (replicate (third column), read-out: Percentage survival at 100um, 100 uM A): 69.2%
CCc1cc(O)c(Oc2cccnc2N)cc1F [MMV1580854]	–	–	–	–	–	86.4	97.5	88.8	72.9	101	78.2	91.9	132	–
O=C(O)c1sccc1S(=O)(=O)n1ccc2cc(Br)ccc21 [MMV1580855]	101	108	88.3	98.9	97.9	–	–	–	–	–	–	–	–	activity at 100 µM [11]: 128%; Percent fungal survival at 100 µM (replicate 2): 86.2%; activity at 100 µM [12]: 79.1%
Cc1ccccc1NC(=O)Nc1cccc([N+](=O)[O-])c1 [MMV1581029]	95.8	97.7	74	89.2	92.5	–	–	–	–	–	–	–	–	activity at 100 µM (first replicate column, read-out: Percentage survival at 100um, 100 uM A): 95.6%; activity at 100 µM (second replicate column, read-out: Percentage survival at 100um, 100 uM A): 104%; activity at 100 µM (third replicate column, read-out: Percentage survival at 100um, 100 uM A): 77.8%
